The first series concerns the target factor Xa (Homo sapiens, UniProt P00742). The series can be described thus: Inhibition of factor Xa (FXa-IC50). The following applies: Table 1, headed 'Affinity to receptors'; read-out: FXa-IC50. In kind it is biochemical. The text has this:
The inhibition of factor Xa by the compounds according to the invention and the measurement of the anticoagulant and antithrombotic activity can be determined by conventional in-vitro or in-vivo methods. A suitable method is described, for example, by J. Hauptmann et al. in Thrombosis and Haemostasis 1990, 63, 220-223.
The inhibition of factor Xa can be measured, for example by the method of T. Hara et al. in Thromb. Haemostas. 1994, 71, 314-319.
Sequence of factor Xa (P00742 235-488 limits assumed): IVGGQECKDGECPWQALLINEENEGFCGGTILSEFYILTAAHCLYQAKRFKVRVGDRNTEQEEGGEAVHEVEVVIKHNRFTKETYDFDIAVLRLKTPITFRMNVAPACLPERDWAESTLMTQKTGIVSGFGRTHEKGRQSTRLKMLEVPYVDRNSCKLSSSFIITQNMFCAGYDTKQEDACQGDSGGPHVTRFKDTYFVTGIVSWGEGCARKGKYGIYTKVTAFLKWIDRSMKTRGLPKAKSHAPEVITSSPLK
Sequence of factor Xa (P00742 41-179 partner limits assumed): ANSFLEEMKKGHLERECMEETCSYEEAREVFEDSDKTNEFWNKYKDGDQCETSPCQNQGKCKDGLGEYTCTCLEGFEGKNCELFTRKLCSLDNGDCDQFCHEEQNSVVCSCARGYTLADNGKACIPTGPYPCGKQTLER
In the case of `O=C(Nc1ccc(N2CCOCC2=O)cc1)[C@H]1CCCN1C(=O)c1ccc(Cl)s1` [AB1], the IC50 was found to be 1800 nM.

`O=C(Nc1ccc(N2CCOCC2=O)cc1)[C@H]1CCCN1C(=O)Nc1ccc(Cl)cc1` [Compound A1, 1-N-[(4-chlorophenyl)]-2-N-{[4-(3-oxomorpholin-4-yl)phenyl]}-(R)-pyrrolidine-1,2-dicarboxamide]: the IC50 worked out at 18 nM.

Turning to `O=C(Nc1ccc(-n2ccccc2=O)cc1)[C@H]1C[C@@H](O)CN1C(=O)Nc1ccc(Cl)cn1` [Compound A6, 1-N-[(5-chloropyridin-2-yl)]-2-N-{[4-(2-oxo-2H-pyridin-1-yl)phenyl]}-(2R,4R)-4-hydroxypyrrolidine-1,2-dicarboxamide], the 50% inhibitory concentration (IC50) turned out to be 3.7 nM.

The series is the same for the next values; noted with them: read-out: IC50(Xa).
In the case of `CCO[C@@H]1C[C@H](C(=O)Nc2ccc(-n3nc(C)sc3=N)cc2)N(C(=O)Nc2ccc(Cl)cc2)C1` [1-N-[(4-chlorophenyl)]-2-N-{[4-(2-imino-5-methyl-1,3,4-thiadiazol-3-yl)phenyl]}-(2R,4R)-4-ethoxypyrrolidine-1,2-dicarboxamide], the IC50 is 4.8 nM.

Consider `Cc1nn(-c2ccc(NC(=O)[C@H]3C[C@@H](OC(C)C)CN3C(=O)Nc3ccc(Cl)cc3)cc2)c(=N)s1` [1-N-[(4-chlorophenyl)]-2-N-{[4-(2-imino-5-methyl-1,3,4-thiadiazol-3-yl)phenyl]}-(2R,4R)-4-isopropoxypyrrolidine-1,2-dicarboxamide], for which the IC50 came to 3 nM.

Regarding `CO[C@@H]1C[C@H](C(=O)Nc2ccc(-n3nc(C)sc3=N)cc2)N(C(=O)Nc2ccc(Cl)cc2)C1` [1-N-[(4-chlorophenyl)]-2-N-{[4-(2-imino-5-methyl-1,3,4-thiadiazol-3-yl)phenyl]}-(2R,4R)-4-methoxypyrrolidine-1,2-dicarboxamide], the IC50 stood at 6.1 nM.

As to `Nc1ccc(O[C@H]2C[C@H](C(=O)Nc3ccc(N4CCOCC4=O)cc3)N(C(=O)Nc3ccc(Cl)cc3)C2)cc1` [Example 13-16, 1-N-[(4-chlorophenyl)]-2-N-{[4-(3-oxomorpholin-4-yl)phenyl]}-(2R,4S)-4-(4-aminophenoxy)pyrrolidine-1,2-dicarboxamide], the IC50 is 25 nM.

As to `O=C(Nc1ccc(N2CCOCC2=O)cc1)[C@H]1C[C@@H](OCC(F)(F)F)CN1C(=O)Nc1ccc(Cl)cc1` [Example 13-18, 1-N-[(4-chlorophenyl)]-2-N-{[4-(3-oxomorpholin-4-yl)phenyl]}-(2R,4R)-4-(2,2,2-trifluoroethoxy)pyrrolidine-1,2-dicarboxamide], the IC50 turned out to be 9.7 nM.

System in a further series: not given
Assay: not given
Details: not given
For `[N-]=[N+]=N[C@H]1C[C@H](C(=O)Nc2ccc(N3CCOCC3=O)cc2)N(C(=O)Nc2ccc(Cl)cc2)C1` [Compound A9, 1-N-[(4-chlorophenyl)]-2-N-{[4-(3-oxomorpholin-4-yl)phenyl]}-(2R,4S)-4-azidopyrrolidine-1,2-dicarboxamide], the melting point came to 145 °C.

As usually defined, the IC50 is the concentration at which inhibition is half-maximal. A word on the melting point: it is the temperature of the solid-liquid transition.

Source of the values: patent publication US20080003214A1, “Medicaments Comprising Carbonyl Compounds, And The Use Thereof” (priority 2004, published 2008).
